Experimental findings from patent publication US8926966B1 (Regents of the University of California, priority 1990, dated 2015) are described below.

In test [1] the test system is spleen cells of NOD mice. Briefly: Proliferative responses of NOD spleen cells to GAD peptides. The format is cell-based, mouse. To be noted: peptide 7 μM, 5-day culture. The protocol:
The fine specificity of the anti-GAD T-cell response was mapped using a set of 38 peptides (numbered successively from the N-terminus) that were 20-23 amino acids (aa) long and span the entire GAD65 (Bu, et al., Proc. Natl. Acad. Sci., 89:2115-2119, 1992) sequence with 5aa overlaps (FIG. 10).
Peptides were present in cultures at 7 μM and the label was added during the last 16 hours of a 5-day culture. The peptides were synthesized using standard Fmoc chemistry and purified by reverse phase HPLC (Advanced Chemtech). The sequence of stimulatory peptides are shown below in Table 9.

Test [2] concerns NOD mice. Briefly: Insulitis score after tolerization of NOD mice. The format is in vivo, mouse. Conditions: examined at 12 weeks.
Test [3] relates to spleen cells of NOD mice. As to the kind of experiment: Spleen cell proliferation (recall response to antigens) after tolerization of NOD mice. To be noted: tested at 12 weeks; for Spleen Cell Proliferation (SI ± SEM) GAD: recall antigen GAD; for Spleen Cell Proliferation (SI ± SEM) GAD Peptides #17: recall antigen GAD peptide #17; for Spleen Cell Proliferation (SI ± SEM) GAD Peptides #34: recall antigen GAD peptide #34; for Spleen Cell Proliferation (SI ± SEM) GAD Peptides #35: recall antigen GAD peptide #35; for Spleen Cell Proliferation (SI ± SEM) hsp Peptide: recall antigen hsp peptide; for Spleen Cell Proliferation (SI ± SEM) β-Gal: recall antigen β-Gal. Type of test: cell-based, mouse. The protocol: Incorporation of label was measured by liquid scintillation counting.

Test [4] has as its system NOD mice. Briefly: GAD immunization of 8 week old NOD mice, IDDM onset. Type of test: in vivo, mouse. Conditions: 25 ug i.p. in IFA at 8 weeks, again every 6 weeks. An excerpt: Breeder mice were purchased from Taconic Farms and housed under specific pathogen-free conditions. Only female NOD mice were used in this study. […] Insulitis is generally observed beginning at 4 weeks of age. […] The incidence of IDDM in female mice is 70-90% by one year of age.
Urine glucose levels were monitored twice weekly. After observing above normal glucose in urea, blood glucose levels were monitored twice weekly.

Test [5] concerns IDDM associated autoantibodies in sera. Briefly: ELISA of sera on plate-bound human GAD65 peptides. The format is binding. Conditions: for number of IDDM (at risk, pre-IDDM, at onset) patients positive (X) for the peptide (unlabelled sum line): IDDM sera of Table 11. Summed up: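 Blinded, coded sera (1/300) bound 1 h at 37 °C to wells coated overnight at 4 °C with peptides (20 ug/ml, pH 9.6), BSA-blocked. Detection with HRP-goat anti-human IgG (1/600), read at 410 nm; positive when sample/negative-control OD410 ≥3.0.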
Background: ELISA stands for enzyme-linked immunosorbent assay.

Test [6] has as its system autoantibodies to GAD in patient sera. Briefly: Immunoprecipitation of ^35S-GAD65 / ^35S-GAD67 by sera drawn prior to IDDM onset. Type of test: binding, human. More on the design: key to band intensity of immunoprecipitated ^35S-GAD: 1 = lowest; 2 = medium; 3 = highest band intensities. The protocol:
Islet cells were extracted as previously described by Atkinson, et al. (Lancet, 335:1357-1360, 1990) with the following modifications. […] The protein A Sepharose CL-4B was then boiled in Laemmli sample buffer (Laemmli, Nature, 227:680-685, 1970), and the samples were subjected to SDS-PAGE and fluororadiography (Kodak, X-omat AR5) using Enhance (New England Nuclear). Alternatively, the autoradiographs were analyzed by a BETAGEN (Boston, Mass.) analyzer. Both 64KA positive and negative sera were used in each assay, to serve as interassay controls. All fluororadiographs were analyzed and rated as positive or negative after comparison with the known interassay controls. […] A similar rating procedure was employed for the intensity of bands corresponding to immunoprecipitated ^35S-GAD65 and ^35S-GAD67.
Rat GAD65 and GAD67 cDNAs were subcloned into a bacterial expression system as previously described. Labeling of ^35S-GADs was completed by pulsing IPTG induced bacterium (growing in Minimal Media) for 15 minutes with TRAN ^35S-label (ICN). Cultures were then spun down and resuspended and sonicated in 1 ml of homogenizing buffer (1 mM phenylmethylsulfonyl fluoride (PMSF), 1 mM 2-aminoethylisothiouronium Bromide (AET) and 60 mM potassium phosphate, pH 7.1). After sonication, cell debris was removed by centrifugation and protein concentration was measured (Bradford, Anal. Biochem., 72:248, […]) in the supernatant (supernatant was stored in aliquots at −70° C.).

The mark [7] stands for this setting: Table 8B: neonatal i.p. with IFA.
Setting [8] is: Table 8C: i.v. at three weeks of age.

Take NMYAMMIARFKMFPEVKEKG [Peptide 17]: the “age of NOD mice at first regularly detectable proliferative response” value (from here on “age of NOD mice”) in the test with spleen cells of NOD mice [1] came out at 5 weeks.
In the case of “β-Gal.: E. coli β-galactosidase, control antigen purified from recombinant bacteria [reference compound]”, the “Insultis Score” value in the test with NOD mice [2] (Table 8A: female NOD mice, i.v. at 3 weeks of age, 50 μg (hsp-p 0.1 μg) in PBS, scale 0-4, mean ± SE) is reported as 2.6 ± 0.6. Moreover, the “Spleen Cell Proliferation (SI ± SEM) CPH” value with spleen cells of NOD mice [3] (Table 8A: i.v. at 3 weeks, recall antigen CPH) came out at 11.5 ± 0.9 SI. Further, in the test on spleen cells of NOD mice [3] (Table 8A: i.v. at 3 weeks), the “Spleen Cell Proliferation (SI ± SEM) GAD” value was 15.4 ± 1.8 SI, the “Spleen Cell Proliferation (SI ± SEM) GAD Peptides #17” value was found to be 5.1 ± 0.6 SI, the “Spleen Cell Proliferation (SI ± SEM) GAD Peptides #34” value is 5.1 ± 0.6 SI and the “Spleen Cell Proliferation (SI ± SEM) GAD Peptides #35” value stood at 4.0 ± 0.2 SI. In the test with spleen cells of NOD mice [3] (Table 8A: i.v. at 3 weeks), the “Spleen Cell Proliferation (SI ± SEM) hsp Peptide” value was 6.6 ± 0.5 SI and the “Spleen Cell Proliferation (SI ± SEM) β-Gal” value is on record as 1.1 ± 0.1 SI. Besides, the “mice that developed IDDM by 27 weeks in age” value in the test with NOD mice [4] is recorded as 6/10. In the test on NOD mice [4] (10 mice per group), the “mice remaining disease free at 52 weeks of age” value was 2.
Take IPPSLRTLEDNEERMSRLSK [Peptide 34]: in the test with spleen cells of NOD mice [1], the “age of NOD mice” value is reported as 4 weeks. Also, the “immunoreactivity of serum with GAD65 peptide” value (from here on “immunoreactivity of serum”) in test [5] (IDDM At Onset serum 048, 1/300 dilution) was “X (X = positive for immunoreactivity as defined by 00/background^3.0)”; in test [5] (IDDM At Onset serum 291, 1/300 dilution), “b (b = borderline response (00/background ?2.5-2.9).)”. Besides, the “number of IDDM (at risk, pre-IDDM, at onset) patients positive (X) for the peptide (unlabelled sum line)” value (“number of IDDM” below) in test [5] came out at 1.
For SRLSKVAPVIKARMMEYGTT [Peptide 35], the “age of NOD mice” value with spleen cells of NOD mice [1] is given as 4 weeks. Besides, the “number of IDDM” value in test [5] worked out at 1. In test [5] (Pre-IDDM serum 723, 1/300 dilution), the “immunoreactivity of serum” value was “X (X = positive for immunoreactivity as defined by 00/background^3.0)”.
In the case of EEILMHCQTTLKYAIKTGHP [Peptide 11], in the test on NOD mice [2] (Table 8B: neonatal female NOD mice, i.p. with IFA, scale 0-4), the “Insultis Score” value is listed as “≈2.5”. In addition, the “Spleen Cell Proliferation (SI ± SEM) GAD” value stood at 21.1 ± 2.2 SI in the test with spleen cells of NOD mice [3] (setting [7]) and 12.1 ± 3.5 SI in the test with spleen cells of NOD mice [3] (setting [8]). In addition, the figures for the “Spleen Cell Proliferation (SI ± SEM) GAD Peptides #17” value in the test with spleen cells of NOD mice [3] (setting [7]) and with spleen cells of NOD mice [3] (setting [8]) were 13.7 ± 1.5 SI and 6.9 ± 0.4 SI, respectively. Moreover, the entries for the “Spleen Cell Proliferation (SI ± SEM) GAD Peptides #34” value in the test on spleen cells of NOD mice [3] (setting [7]) and with spleen cells of NOD mice [3] (setting [8]) were 11.4 ± 1.5 SI and 6.4 ± 1.0 SI, respectively. The entries for the “Spleen Cell Proliferation (SI ± SEM) GAD Peptides #35” value in the test on spleen cells of NOD mice [3] (setting [7]) and in the test on spleen cells of NOD mice [3] (setting [8]) were 11.3 ± 0.7 SI and 6.8 ± 0.3 SI, respectively. Also, the “Spleen Cell Proliferation (SI ± SEM) hsp Peptide” value in the test on spleen cells of NOD mice [3] (setting [7]) was 13.3 ± 0.9 SI; in the test with spleen cells of NOD mice [3] (setting [8]), 8.7 ± 0.9 SI. Also, the figures for the “Spleen Cell Proliferation (SI ± SEM) β-Gal” value with spleen cells of NOD mice [3] (setting [7]) and in the test on spleen cells of NOD mice [3] (setting [8]) were 1.0 ± 0.1 SI and 1.4 ± 0.4 SI, respectively. The “immunoreactivity of serum” value in test [5] (IDDM At Risk serum 825, 1/300 dilution) is “X (X = positive for immunoreactivity as defined by 00/background^3.0)”; in test [5] (IDDM At Risk serum L.I., 1/300 dilution) it was “b (b = borderline response (00/background ?2.5-2.9).)”; in test [5] (Pre-IDDM serum B.Y. (1), 1/300 dilution), “X (X = positive for immunoreactivity as defined by 00/background^3.0)”; in test [5] (Pre-IDDM serum J.B. (1), 1/300 dilution), “b (b = borderline response (00/background ?2.5-2.9).)”; in test [5] (Pre-IDDM serum J.B. (2), 1/300 dilution), “b (b = borderline response (00/background ?2.5-2.9).)”; in test [5] (Pre-IDDM serum R.S. (1), 1/300 dilution), “b (b = borderline response (00/background ?2.5-2.9).)”. For the same molecule, in test [5] (Pre-IDDM serum R.S. (2), 1/300 dilution), the “immunoreactivity of serum” value is “b (b = borderline response (00/background ?2.5-2.9).)”. In addition, the “number of IDDM” value in test [5] is given as 2.

B1: GAD67: rat GAD67 expressed in bacteria, ^35S-labeled, in bacterial lysate (protein)
chain: MASSTPSPATSSNAGADPNTTNLRPTTYDTWCGVAHGCTRKLGLKICGFLQRTNSLEEKSRLVSAFRERQASKNLLSCENSDPGARFRRTETDFSNLFAQDLLPAKNGEEQTVQFLLEVVDILLNYVRKTFDRSTKVLDFHHPHQLLEGMEGFNLELSDHPESLEQILVDCRDTLKYGVRTGHPRFFNQLSTGLDIIGLAGEWLTSTANTNMFTYEIAPVFVLMEQITLKKMREIIGWSNKDGDGIFSPGGAISNMYSIMAARYKYFPEVKTKGMAAVPKLVLFTSEHSHYSIKKAGAALGFGTDNVILIKCNERGKIIPADLEAKILDAKQKGFVPLYVNATAGTTVYGAFDPIQEIADICEKYNLWLHVDAAWGGGLLMSRKHRHKLSGIERANSVTWNPHKMMGVLLQCSAILVKEKGILQGCNQMCAGYLFQPDKQYDVSYDTGDKAIQCGRHVDIFKFWLMWKAKGTVGFENQINKCLELAEYLYAKIKNREEFEMVFNGEPEHTNVCFWYIPQSLRGVPDSPERREKLHRVAPKIKALMMESGTTMVGYQPQGDKANFFRMVISNPAATQSDIDFLIEEIERLGQDL
Consider B1, for which the “band intensity of immunoprecipitated ^35S-GAD” value amounted to 0 in test [6] (serum of patient eight, drawn 8 months before IDDM onset); 1 in test [6] (serum of patient eleven, drawn 10 months before IDDM onset); 0 in test [6] (serum of patient five, drawn 34 months before IDDM onset); 0 in test [6] (serum of patient nine, drawn 42 months before IDDM onset); 1 in test [6] (serum of patient one, drawn 9 months before IDDM onset); 1 in test [6] (serum of patient seven, drawn 3 months before IDDM onset). Further, the “band intensity of immunoprecipitated ^35S-GAD” value in test [6] (serum of patient six, drawn 11 months before IDDM onset) is reported as 1; in test [6] (serum of patient ten, drawn 25 months before IDDM onset), 1; in test [6] (serum of patient three, drawn 14 months before IDDM onset), 0; in test [6] (serum of patient twelve, drawn 4 months before IDDM onset), 0; in test [6] (serum of patient two, drawn 6 months before IDDM onset) it was 2; in test [6] (serum of patient, drawn 66 months before IDDM onset), 0.
